Measured values from patent US20220281848A1, “PYRAZOLE-SUBSTITUTED PYRROLIDINONES AS HERBICIDES” (FMC Corporation, priority 2019, published 2022).

Test system: plants
Test: Test D post-emergence, other plants of Tables D2 and D4
Format: in vivo
Conditions: post-emergence
Description: A formulation containing 50 g/L of the test chemical was prepared by dissolving the active ingredient in a mixture of organic solvents and emulsifier, details of which are provided in the table. This formulation was then mixed with a small, variable amount of acetone to aid dissolution, before addition of a 0.2% v/v aqueous solution of an adjuvant, as the aqueous diluent, to form an aqueous spray solution which contains a predetermined concentration of the active ingredient.
This aqueous spray solution was then sprayed onto plants including maize and wheat that had been seed treated with a herbicide safener, after one day's cultivation (for pre-emergence) or after about 12 days' cultivation (for post-emergence). The plants were grown from seeds sown in standard soil, placed in a glasshouse under controlled conditions (at 24/18° C. or 20/16° C., day/night; 16 h light; 65% humidity). After spray application the plants were then grown in a glasshouse under the same conditions and watered twice daily. After 15 d for post-emergence and 20 DAA for pre-emergence the test was evaluated (100=total damage to plant; 0=no damage to plant).

In the case of CCn1nc([C@H]2CN(C)C(=O)[C@@H]2C(=O)Nc2cccc(F)c2F)c2c(F)cccc21 [Compound 7], the “damage to plant (100=total damage to plant; 0=no damage to plant), ABUTH” value (rate 130, evaluated after 15 d) is reported as 0, the “damage to plant (100=total damage to plant; 0=no damage to plant), ABUTH” value (rate 250, evaluated after 15 d) is reported as 10 and the “damage to plant (100=total damage to plant; 0=no damage to plant), ABUTH” value (rate 500, evaluated after 15 d) is reported as 20. For the same molecule, the “damage to plant (100=total damage to plant; 0=no damage to plant), AMARE” value (rate 130, evaluated after 15 d) was 0, the “damage to plant (100=total damage to plant; 0=no damage to plant), AMARE” value (rate 250, evaluated after 15 d) was 0 and the “damage to plant (100=total damage to plant; 0=no damage to plant), AMARE” value (rate 500, evaluated after 15 d) was 10. The “damage to plant (100=total damage to plant; 0=no damage to plant), BIDPI” value (rate 130, evaluated after 15 d) was 0, the “damage to plant (100=total damage to plant; 0=no damage to plant), BIDPI” value (rate 250, evaluated after 15 d) was 0 and the “damage to plant (100=total damage to plant; 0=no damage to plant), BIDPI” value (rate 500, evaluated after 15 d) was 0. For the same molecule, the “damage to plant (100=total damage to plant; 0=no damage to plant), BRAPL” value (rate 130, evaluated after 15 d) was 0, the “damage to plant (100=total damage to plant; 0=no damage to plant), BRAPL” value (rate 250, evaluated after 15 d) was 80 and the “damage to plant (100=total damage to plant; 0=no damage to plant), BRAPL” value (rate 500, evaluated after 15 d) was 80. The “damage to plant (100=total damage to plant; 0=no damage to plant), CYPES” value (rate 130, evaluated after 15 d) was 0, the “damage to plant (100=total damage to plant; 0=no damage to plant), CYPES” value (rate 250, evaluated after 15 d) was 0 and the “damage to plant (100=total damage to plant; 0=no damage to plant), CYPES” value (rate 500, evaluated after 15 d) was 0. For the same molecule, the “damage to plant (100=total damage to plant; 0=no damage to plant), DIGSA” value (rate 130, evaluated after 15 d) was 0, the “damage to plant (100=total damage to plant; 0=no damage to plant), DIGSA” value (rate 250, evaluated after 15 d) was 80 and the “damage to plant (100=total damage to plant; 0=no damage to plant), DIGSA” value (rate 500, evaluated after 15 d) was 80. For the same molecule, the “damage to plant (100=total damage to plant; 0=no damage to plant), ECHCG” value (rate 130, evaluated after 15 d) was 20, the “damage to plant (100=total damage to plant; 0=no damage to plant), ECHCG” value (rate 250, evaluated after 15 d) was 70 and the “damage to plant (100=total damage to plant; 0=no damage to plant), ECHCG” value (rate 500, evaluated after 15 d) was 70. For the same molecule, the “damage to plant (100=total damage to plant; 0=no damage to plant), EPHHL” value (rate 130, evaluated after 15 d) was 0, the “damage to plant (100=total damage to plant; 0=no damage to plant), EPHHL” value (rate 250, evaluated after 15 d) was 20 and the “damage to plant (100=total damage to plant; 0=no damage to plant), EPHHL” value (rate 500, evaluated after 15 d) was 40. The “damage to plant (100=total damage to plant; 0=no damage to plant), GLXMA” value (rate 130, evaluated after 15 d) was 0, the “damage to plant (100=total damage to plant; 0=no damage to plant), GLXMA” value (rate 250, evaluated after 15 d) was 0 and the “damage to plant (100=total damage to plant; 0=no damage to plant), GLXMA” value (rate 500, evaluated after 15 d) was 0. The “damage to plant (100=total damage to plant; 0=no damage to plant), IPOHE” value (rate 130, evaluated after 15 d) was 0, the “damage to plant (100=total damage to plant; 0=no damage to plant), IPOHE” value (rate 250, evaluated after 15 d) was 0 and the “damage to plant (100=total damage to plant; 0=no damage to plant), IPOHE” value (rate 500, evaluated after 15 d) was 0. For the same molecule, the “damage to plant (100=total damage to plant; 0=no damage to plant), ORYSA” value (rate 130, evaluated after 15 d) was 0, the “damage to plant (100=total damage to plant; 0=no damage to plant), ORYSA” value (rate 250, evaluated after 15 d) was 0 and the “damage to plant (100=total damage to plant; 0=no damage to plant), ORYSA” value (rate 500, evaluated after 15 d) was 0. For the same molecule, the “damage to plant (100=total damage to plant; 0=no damage to plant), PANMI” value (rate 130, evaluated after 15 d) was 0, the “damage to plant (100=total damage to plant; 0=no damage to plant), PANMI” value (rate 250, evaluated after 15 d) was 0 and the “damage to plant (100=total damage to plant; 0=no damage to plant), PANMI” value (rate 500, evaluated after 15 d) was 0. For the same molecule, the “damage to plant (100=total damage to plant; 0=no damage to plant), SETFA” value (rate 130, evaluated after 15 d) was 0, the “damage to plant (100=total damage to plant; 0=no damage to plant), SETFA” value (rate 250, evaluated after 15 d) was 70 and the “damage to plant (100=total damage to plant; 0=no damage to plant), SETFA” value (rate 500, evaluated after 15 d) was 70. The “damage to plant (100=total damage to plant; 0=no damage to plant), SIDSP” value (rate 500, evaluated after 15 d) was 30, the “damage to plant (100=total damage to plant; 0=no damage to plant), SORVU” value (rate 130, evaluated after 15 d) was 0 and the “damage to plant (100=total damage to plant; 0=no damage to plant), SORVU” value (rate 250, evaluated after 15 d) was 0. For the same molecule, the “damage to plant (100=total damage to plant; 0=no damage to plant), SORVU” value (rate 500, evaluated after 15 d) was 60.
In the case of CCn1nc([C@H]2CN(C)C(=O)[C@@H]2C(=O)Nc2cccc(F)c2F)c2cc(F)ccc21 [Compound 8], the “damage to plant (100=total damage to plant; 0=no damage to plant), ABUTH” value (rate 130, evaluated after 15 d) is reported as 0, the “damage to plant (100=total damage to plant; 0=no damage to plant), ABUTH” value (rate 250, evaluated after 15 d) is reported as 0 and the “damage to plant (100=total damage to plant; 0=no damage to plant), ABUTH” value (rate 500, evaluated after 15 d) is reported as 0. For the same molecule, the “damage to plant (100=total damage to plant; 0=no damage to plant), AMARE” value (rate 130, evaluated after 15 d) was 0, the “damage to plant (100=total damage to plant; 0=no damage to plant), AMARE” value (rate 250, evaluated after 15 d) was 0 and the “damage to plant (100=total damage to plant; 0=no damage to plant), AMARE” value (rate 500, evaluated after 15 d) was 0. For the same molecule, the “damage to plant (100=total damage to plant; 0=no damage to plant), BIDPI” value (rate 130, evaluated after 15 d) was 0, the “damage to plant (100=total damage to plant; 0=no damage to plant), BIDPI” value (rate 250, evaluated after 15 d) was 0 and the “damage to plant (100=total damage to plant; 0=no damage to plant), BIDPI” value (rate 500, evaluated after 15 d) was 0. The “damage to plant (100=total damage to plant; 0=no damage to plant), BRAPL” value (rate 130, evaluated after 15 d) was 10, the “damage to plant (100=total damage to plant; 0=no damage to plant), BRAPL” value (rate 250, evaluated after 15 d) was 70 and the “damage to plant (100=total damage to plant; 0=no damage to plant), BRAPL” value (rate 500, evaluated after 15 d) was 70. The “damage to plant (100=total damage to plant; 0=no damage to plant), CYPES” value (rate 130, evaluated after 15 d) was 0, the “damage to plant (100=total damage to plant; 0=no damage to plant), CYPES” value (rate 250, evaluated after 15 d) was 0 and the “damage to plant (100=total damage to plant; 0=no damage to plant), CYPES” value (rate 500, evaluated after 15 d) was 0. The “damage to plant (100=total damage to plant; 0=no damage to plant), DIGSA” value (rate 130, evaluated after 15 d) was 0, the “damage to plant (100=total damage to plant; 0=no damage to plant), DIGSA” value (rate 250, evaluated after 15 d) was 80 and the “damage to plant (100=total damage to plant; 0=no damage to plant), DIGSA” value (rate 500, evaluated after 15 d) was 80. For the same molecule, the “damage to plant (100=total damage to plant; 0=no damage to plant), ECHCG” value (rate 130, evaluated after 15 d) was 0, the “damage to plant (100=total damage to plant; 0=no damage to plant), ECHCG” value (rate 250, evaluated after 15 d) was 80 and the “damage to plant (100=total damage to plant; 0=no damage to plant), ECHCG” value (rate 500, evaluated after 15 d) was 80. The “damage to plant (100=total damage to plant; 0=no damage to plant), EPHHL” value (rate 250, evaluated after 15 d) was 30, the “damage to plant (100=total damage to plant; 0=no damage to plant), EPHHL” value (rate 500, evaluated after 15 d) was 20 and the “damage to plant (100=total damage to plant; 0=no damage to plant), GLXMA” value (rate 130, evaluated after 15 d) was 0. The “damage to plant (100=total damage to plant; 0=no damage to plant), GLXMA” value (rate 250, evaluated after 15 d) was 0, the “damage to plant (100=total damage to plant; 0=no damage to plant), GLXMA” value (rate 500, evaluated after 15 d) was 0 and the “damage to plant (100=total damage to plant; 0=no damage to plant), IPOHE” value (rate 130, evaluated after 15 d) was 0. For the same molecule, the “damage to plant (100=total damage to plant; 0=no damage to plant), IPOHE” value (rate 250, evaluated after 15 d) was 0, the “damage to plant (100=total damage to plant; 0=no damage to plant), IPOHE” value (rate 500, evaluated after 15 d) was 0 and the “damage to plant (100=total damage to plant; 0=no damage to plant), ORYSA” value (rate 130, evaluated after 15 d) was 0. For the same molecule, the “damage to plant (100=total damage to plant; 0=no damage to plant), ORYSA” value (rate 250, evaluated after 15 d) was 0, the “damage to plant (100=total damage to plant; 0=no damage to plant), ORYSA” value (rate 500, evaluated after 15 d) was 10 and the “damage to plant (100=total damage to plant; 0=no damage to plant), PANMI” value (rate 130, evaluated after 15 d) was 0. The “damage to plant (100=total damage to plant; 0=no damage to plant), PANMI” value (rate 250, evaluated after 15 d) was 0, the “damage to plant (100=total damage to plant; 0=no damage to plant), PANMI” value (rate 500, evaluated after 15 d) was 0 and the “damage to plant (100=total damage to plant; 0=no damage to plant), SETFA” value (rate 130, evaluated after 15 d) was 0. For the same molecule, the “damage to plant (100=total damage to plant; 0=no damage to plant), SETFA” value (rate 250, evaluated after 15 d) was 60, the “damage to plant (100=total damage to plant; 0=no damage to plant), SETFA” value (rate 500, evaluated after 15 d) was 80 and the “damage to plant (100=total damage to plant; 0=no damage to plant), SIDSP” value (rate 130, evaluated after 15 d) was 0. The “damage to plant (100=total damage to plant; 0=no damage to plant), SIDSP” value (rate 250, evaluated after 15 d) was 0, the “damage to plant (100=total damage to plant; 0=no damage to plant), SIDSP” value (rate 500, evaluated after 15 d) was 10 and the “damage to plant (100=total damage to plant; 0=no damage to plant), SORVU” value (rate 130, evaluated after 15 d) was 0. The “damage to plant (100=total damage to plant; 0=no damage to plant), SORVU” value (rate 250, evaluated after 15 d) was 0 and the “damage to plant (100=total damage to plant; 0=no damage to plant), SORVU” value (rate 500, evaluated after 15 d) was 0.
